# Reference: patent publication US20080280945A1, “Crystalline forms of an HIV integrase inhibitor” (priority 2007, published 2008)
# What was measured:
# [1] = thermal stability studies, 2 weeks storage, HPLC and XRPD; format: physicochemical; conditions: for Loss at 40° C., 75% RH / Loss at 60° C., ambient RH: 2 weeks storage, HPLC, NLQ = no loss greater than the limit of quantitation
# Method: One set of samples of the amorphous, crystalline ethanolate, crystalline hydrate, and crystalline anhydrate forms of Isomer M were stored in a GMP stability chamber at 40° C. and 75% relative humidity (RH) and another set of analogous samples was stored at 60° C. and ambient RH in a Vacuum Oven, NAPCO (National Appliance Company) Model 5831. The samples were analyzed by XRPD and by HPLC before and after 2 weeks storage. HPLC conditions: column=Symmetry Shield RP18 15 cm×4.6 mm (Waters Corporation) with 3.5 μm particle size; temperature=25° C., UV detection at λ=220 nm; flow rate=1 mL/minute; injection volume=10 μL; mobile phase=initial conditions at 20% acetonitrile and 80% 0.1% phosphate buffer with a gradient from 20% acetonitrile to 35% acetonitrile in 8 minutes, hold at 35% acetonitrile for 5 minutes, from 35% to 60% acetonitrile in 13 minutes, from 60% to 90% acetonitrile in 10 minutes (run time: 36 minutes, equilibration time: 10 minutes).
# [2] = solubility in water at 25° C. (ReactArray ST system, HPLC); format: physicochemical; conditions: for Solubility: equilibrated 24 h, average of last four hours, mean ± SE of 4 samples (amorphous: 1 sample); for Comment (form of excess solid): excess solid after solubility experiment
# Method: The solubilities of crystalline ethanolate, crystalline hydrate and crystalline anhydrate were determined in water at 25° C. using a ReactArray ST™ system (Anachem, UK). Approximately 50 mg of material was transferred to a sample tube and 1.5 mL of water was added to it. The tubes were mounted on a temperature control block and the slurry was stirred at 400 rpm using a magnetic stir bar. The solution was equilibrated for 24 hours following which the concentration was monitored every hour for 6 hours.
# HPLC conditions: column=C18 Bridge column (Waters Corporation), 4.6 mm×50 mm and 2.5 μm particle size; temperature=25° C., UV detection at λ=220 nm; flow rate=1 mL/minute; injection volume=5 μL; mobile phase=initial conditions at 20% acetonitrile and 80% 0.1% phosphate buffer with a gradient from 20% acetonitrile to 95% acetonitrile in 3 minutes, hold at 95% acetonitrile for 3 minutes, then from 95% to 20% acetonitrile in 0.1 minute (run time: 7 minutes), followed by 1 minute conditioning.
# [3] = tested on: acute HIV infection of T-lymphoid cells; assay: inhibition of acute HIV infection of T-lymphoid cells (Vacca et al.); format: cell-based; conditions: n=6
# [4] = after 2 weeks at 60° C., ambient RH
"Loss at 40° C., 75% RH [1]",Solubility [2],Comment (form of excess solid) [2],"Loss at 60° C., ambient RH [1]","XRPD (form change) ([1]; after 2 weeks at 40° C., 75% RH)","XRPD (form change) [1, 4]",Structure (SMILES),IC95 ([3]; in the presence of 10% FBS),IC95 ([3]; in the presence of 50% human serum)
8.9 A %,0.83 mg/mL,Excess solid is amorphous,,,,"CN1C[C@H](O)C(C)(C)Cn2c(c3c(c(O)c2=O)C(=O)N(Cc2ccc(F)c(Cl)c2)CC3)C1=O [Amorphous, M-(4R)-11-(3-chloro-4-fluorobenzyl)-4,9-dihydroxy-2,5,5-trimethyl-3,4,5,6,12,13-hexahydro-2H[1,4]diazocino[2,1-a]-2,6-naphthyridine-1,8,10(11H)-trione]",,
NLQ,0.124 (±0.010) mg/mL,Excess solid is anhydrate,NLQ,no detectable change,no detectable change,"CN1C[C@H](O)C(C)(C)Cn2c(c3c(c(O)c2=O)C(=O)N(Cc2ccc(F)c(Cl)c2)CC3)C1=O [Crystalline anhydrate, M-(4R)-11-(3-chloro-4-fluorobenzyl)-4,9-dihydroxy-2,5,5-trimethyl-3,4,5,6,12,13-hexahydro-2H[1,4]diazocino[2,1-a]-2,6-naphthyridine-1,8,10(11H)-trione anhydrate]",,
0.3 A %,0.071 (±0.002) mg/mL,Excess solid converts to hydrate,11.5 A %,,no detectable change,"CN1C[C@H](O)C(C)(C)Cn2c(c3c(c(O)c2=O)C(=O)N(Cc2ccc(F)c(Cl)c2)CC3)C1=O [Crystalline ethanolate, M-(4R)-11-(3-chloro-4-fluorobenzyl)-4,9-dihydroxy-2,5,5-trimethyl-3,4,5,6,12,13-hexahydro-2H[1,4]diazocino[2,1-a]-2,6-naphthyridine-1,8,10(11H)-trione ethanolate]",,
,,,,,,"CN1C[C@H](O)C(C)(C)Cn2c(c3c(c(O)c2=O)C(=O)N(Cc2ccc(F)c(Cl)c2)CC3)C1=O [Isomer M, M-(4R)-11-(3-chloro-4-fluorobenzyl)-4,9-dihydroxy-2,5,5-trimethyl-3,4,5,6,12,13-hexahydro-2H[1,4]diazocino[2,1-a]-2,6-naphthyridine-1,8,10(11H)-trione]",15.6±0 1M,51.7±16
